Test system: chronic obstructive pulmonary disease-model animal
Assay: Drug efficacy evaluation in the chronic obstructive pulmonary disease-model animal (change of respiratory function)
[1] = 10 mg/kg orally 1 hour before cigarette solution and LPS solution, guinea-pig, average values of 6 animals

Cn1c(=O)c2[nH]cnc2n(C)c1=O [Theophylline, theophylline]
Peak expiratory flow [1]: 19.0 mL/s
Respiratory minute rate [1]: 124 breaths/min
Respiratory minute volume [1]: 457 mL/min
Tidal volume [1]: 3.7 mL
Effect on respiration function (in words) (10 mg/kg orally, COPD-model guinea-pig): improvement effect of respiration function

From patent US20080072338A1, “Animal for Drug Efficacy Evaluation, Method for Developing Chronic Obstructive Pulmonary Disease in Animal for Drug Efficacy Evaluation, and Method for Evaluating Drug Efficacy Using the Animal” (priority 2004, published 2008)
